Experimental findings from patent US8697739B2, “Bicyclic acetyl-CoA carboxylase inhibitors and uses thereof” (Novartis AG, priority 2010, dated 2014) are described below.

SMILES strings stand for the structures.

The target in this assay is T1, human acetyl-CoA carboxylase 2 (ACC2) (Homo sapiens, UniProt O00763).
T1 construct: The cDNA encoding amino acids 144 to 2458 of human acetyl-CoA carboxylase 2; made in house; host or cells: Sf9 insect cells (baculovirus, pFastBac1)
T1 sequence (O00763 144-2458): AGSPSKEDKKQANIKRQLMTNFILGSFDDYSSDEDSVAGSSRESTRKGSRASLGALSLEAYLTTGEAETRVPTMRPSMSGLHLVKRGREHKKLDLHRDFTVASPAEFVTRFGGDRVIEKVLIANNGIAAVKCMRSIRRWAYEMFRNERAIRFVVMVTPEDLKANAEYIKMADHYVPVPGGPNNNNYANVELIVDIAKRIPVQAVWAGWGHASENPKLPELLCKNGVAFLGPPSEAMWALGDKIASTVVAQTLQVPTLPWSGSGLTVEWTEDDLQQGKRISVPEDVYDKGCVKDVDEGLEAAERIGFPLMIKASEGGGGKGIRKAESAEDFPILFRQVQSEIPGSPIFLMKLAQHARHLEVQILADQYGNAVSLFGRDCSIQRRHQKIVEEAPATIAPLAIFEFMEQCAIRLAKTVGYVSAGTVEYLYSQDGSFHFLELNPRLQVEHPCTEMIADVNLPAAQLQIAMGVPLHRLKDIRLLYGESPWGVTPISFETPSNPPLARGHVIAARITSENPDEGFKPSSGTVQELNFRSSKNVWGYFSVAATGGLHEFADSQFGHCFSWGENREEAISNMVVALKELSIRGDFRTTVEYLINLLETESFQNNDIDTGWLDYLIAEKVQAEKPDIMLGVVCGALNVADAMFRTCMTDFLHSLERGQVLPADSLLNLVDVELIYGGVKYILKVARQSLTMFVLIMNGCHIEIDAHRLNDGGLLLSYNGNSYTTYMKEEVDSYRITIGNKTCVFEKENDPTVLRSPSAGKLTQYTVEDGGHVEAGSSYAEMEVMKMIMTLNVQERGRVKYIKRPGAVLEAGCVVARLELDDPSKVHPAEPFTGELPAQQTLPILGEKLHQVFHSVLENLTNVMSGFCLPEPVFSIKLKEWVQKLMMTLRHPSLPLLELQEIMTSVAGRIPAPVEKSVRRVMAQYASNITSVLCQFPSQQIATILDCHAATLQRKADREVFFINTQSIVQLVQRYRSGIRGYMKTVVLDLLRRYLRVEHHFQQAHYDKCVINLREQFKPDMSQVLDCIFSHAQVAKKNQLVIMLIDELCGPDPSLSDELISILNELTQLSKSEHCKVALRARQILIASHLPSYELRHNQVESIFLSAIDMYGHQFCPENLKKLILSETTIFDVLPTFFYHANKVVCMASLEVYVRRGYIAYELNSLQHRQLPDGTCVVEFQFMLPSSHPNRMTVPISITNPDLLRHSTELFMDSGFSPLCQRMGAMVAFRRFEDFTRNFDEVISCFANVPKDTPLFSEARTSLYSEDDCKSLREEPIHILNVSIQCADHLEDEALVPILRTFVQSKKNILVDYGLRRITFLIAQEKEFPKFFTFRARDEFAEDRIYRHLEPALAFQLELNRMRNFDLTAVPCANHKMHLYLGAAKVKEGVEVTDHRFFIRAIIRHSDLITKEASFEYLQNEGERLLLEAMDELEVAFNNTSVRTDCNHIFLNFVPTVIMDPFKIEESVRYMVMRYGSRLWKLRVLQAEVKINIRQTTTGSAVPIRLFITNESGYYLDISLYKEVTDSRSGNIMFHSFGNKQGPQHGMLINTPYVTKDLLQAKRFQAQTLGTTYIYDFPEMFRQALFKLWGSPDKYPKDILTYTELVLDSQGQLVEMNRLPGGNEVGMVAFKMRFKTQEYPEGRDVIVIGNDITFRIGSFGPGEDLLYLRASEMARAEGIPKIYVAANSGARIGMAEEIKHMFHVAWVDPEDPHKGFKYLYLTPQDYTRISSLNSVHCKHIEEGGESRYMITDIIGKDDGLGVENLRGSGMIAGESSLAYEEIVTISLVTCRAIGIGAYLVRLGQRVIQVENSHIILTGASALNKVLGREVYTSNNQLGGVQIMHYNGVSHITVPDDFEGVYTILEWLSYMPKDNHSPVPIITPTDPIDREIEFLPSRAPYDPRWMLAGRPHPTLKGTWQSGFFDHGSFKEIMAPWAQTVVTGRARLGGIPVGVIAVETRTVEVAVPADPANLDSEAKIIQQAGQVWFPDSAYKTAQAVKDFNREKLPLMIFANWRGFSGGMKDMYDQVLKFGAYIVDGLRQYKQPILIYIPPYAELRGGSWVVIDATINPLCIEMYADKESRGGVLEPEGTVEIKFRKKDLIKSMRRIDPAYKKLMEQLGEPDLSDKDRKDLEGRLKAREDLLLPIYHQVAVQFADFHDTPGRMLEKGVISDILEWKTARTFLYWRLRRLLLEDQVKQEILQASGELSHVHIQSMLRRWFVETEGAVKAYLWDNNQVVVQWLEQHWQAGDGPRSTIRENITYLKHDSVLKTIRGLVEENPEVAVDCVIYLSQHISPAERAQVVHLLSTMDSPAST
Description: Acetyl-CoA carboxylase enzyme assay (malonyl-CoA formation by LC/MS/MS). Type of assay: biochemical. The note with it: recombinant human ACC2 (aa 144-2458); read-out: IC50 ACC2. The method, boiled down:
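Malonyl-CoA formation was read by LC/MS/MS MRM against a [13C3]-malonyl-CoA internal standard, after acetic acid quench. The enzyme was baculovirus/Sf9-expressed human ACC2 residues 144–2458, given 15 minutes room-temperature compound preincubation in HEPES pH 7.5 buffer with MgCl2, citrate and DTT. Substrate solution held 50 μM acetyl-CoA, 120 μM ATP and 2 mM KHCO3.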
The term IC50 denotes the concentration at which inhibition is half-maximal. As for `Cc1cnc2c(S(=O)(=O)N[C@H]3CC[C@H](C(=O)N[C@H](C)c4ccc(F)cc4)CC3)cccc2c1` [Example 165, (1r,4R)-N-((R)-1-(4-fluorophenyl)ethyl)-4-(3-methylquinoline-8-sulfonamido)cyclohexanecarboxamide], the half-maximal inhibitory concentration (IC50) was 675 nM.

As for `COC(=O)N1CCNc2ncc(S(=O)(=O)N[C@H]3CC[C@H](C(=O)N[C@H](C)c4ccc(F)cc4)CC3)cc21` [Example 222, methyl 7-(N-((1R,4r)-4-((R)-1-(4-fluorophenyl)ethylcarbamoyl)cyclohexyl)sulfamoyl)-3,4-dihydropyrido[3,2-b]pyrazine-1(2H)-carboxylate], the half-maximal inhibitory concentration (IC50) was found to be 40 nM.

`COC(=O)c1ccc(-c2nc3cc(S(=O)(=O)N[C@H]4CC[C@H](c5nnc(C(C)(C)C)o5)CC4)ccc3[nH]2)cc1` [Example 652, methyl 4-(5-(N-((1r,4r)-4-(5-tert-butyl-1,3,4-oxadiazol-2-yl)cyclohexyl)sulfamoyl)-1H-benzo[d]imidazol-2-yl)benzoate]: the half-maximal inhibitory concentration (IC50) is 869 nM.

Take `CC(C)OC(=O)c1ccc(NS(=O)(=O)c2ccc3[nH]c(Nc4ccc(S(N)(=O)=O)cc4)nc3c2)cc1` [Example 528, isopropyl 4-(2-(4-sulfamoylphenylamino)-1H-benzo[d]imidazole-5-sulfonamido)benzoate]: the half-maximal inhibitory concentration (IC50) amounted to 41 nM.

With `CCOC(=O)N1CCNc2ncc(S(=O)(=O)N[C@H]3CC[C@H](C(=O)N[C@H](C)c4ccc(F)cc4)CC3)cc21` [Example 209, ethyl 7-(N-((1R,4r)-4-((R)-1-(4-fluorophenyl)ethylcarbamoyl)cyclohexyl)sulfamoyl)-3,4-dihydropyrido[3,2-b]pyrazine-1(2H)-carboxylate], the IC50 worked out at 20 nM.

As to `O=C([C@H]1CC[C@H](NS(=O)(=O)c2ccc3c(c2)CCC3)CC1)N1CCNC[C@@H]1c1ccccc1` [Example 245, N-((1S,4r)-4-((S)-2-phenylpiperazine-1-carbonyl)cyclohexyl)-2,3-dihydro-1H-indene-5-sulfonamide], the IC50 came out at 35 nM.

`CCN(C)C(=O)[C@H]1CC[C@H](NS(=O)(=O)c2ccc3cc(-c4ccc(CO)cc4)n(C)c3c2)CC1` [Example 349, (1r,4r)-N-ethyl-4-(2-(4-(hydroxymethyl)phenyl)-1-methyl-1H-indole-6-sulfonamido)-N-methylcyclohexanecarboxamide]: the IC50 came to 100 nM.

For the compound `C[C@@H](NC(=O)[C@H]1CC[C@@H](NS(=O)(=O)c2cnc3c(c2)NCC(C)(C)CN3)CC1)c1ccc(F)cc1` [Example 154, (1s,4S)-4-(3,3-dimethyl-2,3,4,5-tetrahydro-1H-pyrido[2,3-b][1,4]diazepine-8-sulfonamido)-N-((R)-1-(4-fluorophenyl)ethyl)cyclohexanecarboxamide], the IC50 worked out at 1990 nM.

For the compound `CC(C)(C)OC(=O)N1CCN(c2ccc(-c3nc4cc(S(=O)(=O)N[C@H]5CC[C@H](C(=O)N6CCOCC6)CC5)ccc4[nH]3)cc2)CC1` [Example 103, tert-butyl 4-(4-(5-(N-((1r,4r)-4-(morpholine-4-carbonyl)cyclohexyl)sulfamoyl)-1H-benzo[d]imidazol-2-yl)phenyl)piperazine-1-carboxylate], the IC50 stood at 38 nM.

With `C[C@@H](NC(=O)[C@H]1CC[C@H](NS(=O)(=O)c2cnc3c(c2)N(C(=O)OC2CCCCC2)CCN3)CC1)c1ccc(F)cc1` [Example 210, cyclohexyl 7-(N-((1R,4r)-4-((R)-1-(4-fluorophenyl)ethylcarbamoyl)cyclohexyl)sulfamoyl)-3,4-dihydropyrido[3,2-b]pyrazine-1(2H)-carboxylate], the IC50 came to 225 nM.

For `C[C@@H](NC(=O)[C@H]1CC[C@H](NS(=O)(=O)c2ccc3[nH]c(-c4cccnc4)cc3c2)CC1)c1ccccc1` [Example 284, (1r,4R)-N-((R)-1-phenylethyl)-4-(2-(pyridin-3-yl)-1H-indole-5-sulfonamido)cyclohexanecarboxamide], the half-maximal inhibitory concentration (IC50) is 14 nM.
